The record followed here is paper PMC10135378, “Synthesis of Novel N-Heterocyclic Carbene-Ruthenium (II) Complexes, “Precious” Tools with Antibacterial, Anticancer and Antioxidant Properties” (Antibiotics, 2023).

The nature of data set [1]: Conductivity measurements (hydrolytic stability). The data set is classed as physicochemical. To be noted: DMSO/H2O 90/10, solutions about 10^−3 M, room temperature. The procedure: The proposed structures and hydrolytic stability were supported by conductivity measurements (solutions about 10^−3 M); in fact, the conductance values for the Ru compounds I, IV, V, and VI determined in DMSO/H2O 90/10 are substantially independent of the concentration, which is close to zero. […] This was attributed to the presence of a small amount of sodium iodide in the sample (about 10 mol%).
The NMR spectra were recorded on a Bruker AM 250 spectrometer (250 MHz for ^1H; 62.5 MHz for ^13C), a Bruker AM 300 spectrometer (300 MHz for ^1H; 75 MHz for ^13C), and a Bruker AVANCE 400 spectrometer (400 MHz for ^1H; 100 MHz for ^13C; 161.97 MHz for ^31P; 376 MHz for ^19F). NMR samples were prepared by solubilizing about 15 mg of compound in 0.5 mL of deuterated solvent. The ^1H and ^13C NMR chemical shifts are referenced to SiMe4 (δ = 0 ppm) using the residual proton impurities of the deuterated solvents as internal standards. ^1H NMR spectra are referenced using the residual solvent peak δ 2.50 for DMSO-d6 and δ 7.27 for CDCl3. ^13C NMR spectra are referenced using the residual solvent peak at δ 39.51 for DMSO-d6 and δ 77.23 for CDCl3. Multiplicities are abbreviated as follows: singlet (s), doublet (d), triplet (t), multiplet (m), doublet of doublets (dd), broad (br), and overlapped (o). Elemental analysis was conducted using a PERKIN-Elmer 240-C analyzer. ESI-MS measurements were performed on a Waters Quattro Micro triple quadrupole mass spectrometer, equipped with an electrospray ion source. MALDI-MS mass spectra were achieved by a Bruker SolariX XR Fourier transform ion cyclotron resonance mass spectrometer (Bruker Daltonik GmbH, Bremen, Germany) with a 7 T refrigerated actively shielded superconducting magnet (Bruker Biospin, Wissembourg, France). MALDI ion source (Bruker Daltonik GmbH, Bremen, Germany) was used in the samples in positive ion mode. The mass range was set to m/z 200–3000. The laser power was 28% and 22 laser shots were utilized for each scan. The mass spectra were calibrated externally using a mix of peptide clusters in MALDI ionization positive ion mode. A linear calibration was applied. The molar conductance of the ruthenium complexes was measured at room temperature by a Metrohm 712 Conductometer using freshly prepared 10^−3 M solutions in DMSO/H2O 90/10 solvent.

The test system of a further data set is MCF-7 cells. Put plainly: MTT assay, anticancer activity on MCF-7 cells. The data set is classed as cell-based, human. The note with it: 72 h exposure, 0.1-100 µM. The procedure:
(§1) The anticancer activity of all the synthesized Ru-NHC complexes (RANHC I-VI) was studied in two human breast cancer cell lines, namely the estrogen receptor positive (ER+) MCF-7 cells and the triple negative MDA-MB-231 cells (ER-, PR-, and HER-2/Neu not overexpressed), and neuroblastoma cells, i.e., SH-SY5Y. First, the cells were exposed for 72 h at different concentrations of the studied complexes (from 0.1 to 100 µM) and then their viability was checked by MTT assay.
(§2) The adopted cells (breast cancer MCF-7 and MDA-MB-231 and human mammary epithelial MCF-10A cells) were purchased from American Type Culture Collection (ATCC, Manassas, VA, USA) and cultured as indicated. The mouse embryonic fibroblast BALB/3T3 and neuroblastoma SH-SY5Y were also obtained from American Type Culture Collection (ATCC, Manassas, VA, USA) and cultured in DMEM high glucose supplemented with 100 U mL^−1 penicillin/streptomycin and 10% bovine calf serum (BCS) or 10% fetal bovine serum (FBS), respectively.
(§3) MTT assay (Sigma Aldrich (St. Louis, MO, USA)) was used for the in vitro anticancer activity evaluation, as previously reported. The Ru-NHC complexes were employed at different concentrations (0.1–1–10–25–50–100 μM) for 72 h. The IC50 values were calculated from the percent (%) of control using GraphPad Prism 9 (GraphPad Software, La Jolla, CA, USA).
(In general: Tetrazolium dyes change colour on reduction, which living cells bring about.)

A further data set has as its system SH-SY5Y cells. Put plainly: MTT assay, anticancer activity on SH-SY5Y neuroblastoma cells. The data set is classed as cell-based. The note with it: 72 h exposure, 0.1-100 µM. The procedure:
as §1, §2, §3

Another data set concerns MDA-MB-231 cells. Put plainly: MTT assay, anticancer activity on MDA-MB-231 cells. The format is cell-based, human. The note with it: for IC50: MTT, 72 h exposure, 0.1-100 µM; for fold more active against MDA-MB-231 than MCF-10A cells: ratio of IC50 values MCF-10A / MDA-MB-231. The procedure:
as §1, §2, §3

Data set [2] relates to Enterococcus faecalis (ATCC 19433). As to the kind of experiment: MIC/MBC broth dilution, E. faecalis. The note with it: broth dilution, 37 °C, 18 h. The data set is classed as cell-based. The procedure:
(§4) One Gram-negative (Escherichia coli (ATCC® 25922TM)) and two Gram-positive bacterial strains (Enterococcus faecalis (ATCC® 19433TM) and Staphylococcus aureus (ATCC® 23235TM)] were used for MIC and MBC values determination, according to CLSI guidelines. MIC represents the lowest concentration of compound inhibiting the visible microbial growth and expressed as μg/mL; MBC is the lowest concentration able to kill the bacteria. Both determinations were performed by the broth dilution method. Bacteria were grown overnight in LB medium (2%), then diluted to a density of […] colony forming units (CFUs) per mL, plated in sterile 96-well microplates, obtaining about 10^5 cells/ well. Increasing concentrations of the Ru-NHC complexes (1, 10, 25, 50, 70, 100 µg/mL) were used. After incubation at 37 °C for 18 h (overnight), bacterial growth was checked at a wavelength of 600 nm using a Multiskan spectrophotometer (model Multiskan Ex Microplate; Thermo Scientific, Nyon, Switzerland) and MIC or MBC values were determined, comparing cell density with a positive control (bacterial cells grown in LB medium were added with only the vehicle, DMSO). Each experiment was carried out five times, in triplicate. Ampicillin (Sigma Aldrich A9393) was used as the control for strain sensitivity.
In general terms: Dilution methods test growth across graded concentrations, often in twofold steps.

Another data set has as its system MCF-10A cells. As to the kind of experiment: MTT assay, non-tumoral MCF-10A cells. The format is cell-based, human. To be noted: 72 h exposure.
From the text: (§5) Additionally, we investigated the selectivity of all the synthesized Ru-NHC complexes on the cancer cells by studying their capability to interfere with the growth of two non-tumoral cells, namely the MCF-10A and BALB/3T3 cells.
as §2, §3

Another data set concerns BALB/3T3 cells. As to the kind of experiment: MTT assay, non-tumoral BALB/3T3 fibroblasts. The data set is classed as cell-based. The note with it: 72 h exposure, non-tumoral mouse embryonic fibroblasts.
From the text: as §5, §2, §3

Data set [3] deals with Staphylococcus aureus (ATCC 23235). Put plainly: MIC/MBC broth dilution, S. aureus. The data set is classed as cell-based. The note with it: broth dilution, 37 °C, 18 h. The procedure: as §4

Molecules are shown by their SMILES. Where only a bound is given, the exact number is not on record here.

Broadly, the IC50 is the concentration at which inhibition is half-maximal. A lower IC50 goes with greater potency in that assay. For the molecule `CN1C=CN2CC(c3ccccc3)[O+](C)[Ru]([Cl])=[C]12.Cc1ccc(C(C)C)cc1.F[P-](F)(F)(F)(F)F` (centres unmarked) [RANHC-III], the conductivity in data set [1] is recorded as 6.3–25.6 μS cm^−1. The IC50 in the data set on MCF-7 cells, in the data set on SH-SY5Y cells, in the data set with MDA-MB-231 cells, in the data set with MCF-10A cells and in the data set on BALB/3T3 cells was more than 100 µM each time. Moreover, the “M.I.C. E. faecalis” value in data set [2] was 50 µg/mL. Also, the “M.I.C. S. aureus” value in data set [3] is 25 µg/mL.

Regarding `COC(Cn1ccn(C)[c]1=[Ru]([I])[I])c1ccccc1.Cc1ccc(C(C)C)cc1` (centres unmarked) [RANHC-II], the conductivity in data set [1] is 13.1–44.2 μS cm^−1. For the same molecule, the half-maximal inhibitory concentration (IC50) in the data set with MCF-7 cells, with SH-SY5Y cells, with MDA-MB-231 cells, in the data set with MCF-10A cells and in the data set with BALB/3T3 cells was more than 100 µM each time. In addition, the “M.I.C. E. faecalis” value in data set [2] was 50 µg/mL. Moreover, in data set [3], the “M.I.C. S. aureus” value is recorded as 25 µg/mL.

As to `COC(Cn1ccn(C)[c]1=[Ru]1[O]C(=O)C(=O)[O]1)c1ccccc1.Cc1ccc(C(C)C)cc1` (centres unmarked) [RANHC-IV], the conductivity result in data set [1] is reported as “close to zero”. Moreover, the IC50 in the data set with MCF-7 cells is more than 100 µM; in the data set on SH-SY5Y cells, 88.9 ± 0.9 µM; in the data set with MDA-MB-231 cells it was more than 100 µM; in the data set with MCF-10A cells it was more than 100 µM; in the data set on BALB/3T3 cells, more than 100 µM. Besides, the “M.I.C. E. faecalis” value in data set [2] is reported as 50 µg/mL. The “M.I.C. S. aureus” value in data set [3] was 25 µg/mL.

`COC(Cn1ccn(C)[c]1=[Ru]([Cl])[Cl])c1ccccc1.Cc1ccc(C(C)C)cc1` (centres unmarked) [RANHC-I]: the conductivity result in data set [1] is listed as “close to zero”. The IC50 was more than 100 µM in the data set on MCF-7 cells; 90 ± 1.2 µM with SH-SY5Y cells; more than 100 µM in the data set with MDA-MB-231 cells; more than 100 µM in the data set with MCF-10A cells; more than 100 µM with BALB/3T3 cells. Moreover, the “M.I.C. E. faecalis” value in data set [2] is listed as 50 µg/mL. The “M.I.C. S. aureus” value in data set [3] was 25 µg/mL.

Regarding `COC(Cn1[c](=[Ru]([Cl])[Cl])n(C)c2ccccc21)c1ccccc1.Cc1ccc(C(C)C)cc1` (centres unmarked) [RANHC-VI], the conductivity result in data set [1] was “close to zero”. Also, the IC50 in the data set with MCF-7 cells was 54.8 ± 1.1 µM; with SH-SY5Y cells it was 66.9 ± 0.8 µM; with MDA-MB-231 cells it was 40.6 ± 1.1 µM; in the data set with MCF-10A cells it was 90.7 ± 1.2 µM; in the data set on BALB/3T3 cells, 39.1 ± 1.1 µM. The “fold more active against MDA-MB-231 than MCF-10A cells” value in the data set on MDA-MB-231 cells is 2.2 fold. The “M.I.C. E. faecalis” value in data set [2] came out at 50 µg/mL. The “M.I.C. S. aureus” value in data set [3] was determined as 25 µg/mL.

Regarding `COC(Cn1c(Cl)c(Cl)n(C)[c]1=[Ru]([Cl])[Cl])c1ccccc1.Cc1ccc(C(C)C)cc1` (centres unmarked) [RANHC-V], in data set [1], the conductivity entry is on record as “close to zero”. Besides, the IC50 with MCF-7 cells was 26.1 ± 0.9 µM; in the data set with SH-SY5Y cells, 48.4 ± 0.8 µM; with MDA-MB-231 cells, 24.1 ± 0.7 µM; in the data set on MCF-10A cells, 79.5 ± 1.2 µM; in the data set on BALB/3T3 cells it was more than 100 µM. In the data set on MDA-MB-231 cells, the “fold more active against MDA-MB-231 than MCF-10A cells” value is on record as “about 3.3 fold”. The “M.I.C. E. faecalis” value in data set [2] was 70 µg/mL. Besides, the “M.I.C. S. aureus” value in data set [3] came to 25 µg/mL.
